Reference: patent publication US20230414715A1, “TRAIL COMPOUNDS FOR REDUCING CANCER TREAMENT SIDE EFFECTS” (BROWN UNIVERSITY, priority 2022, published 2023)
“Also recorded” adds a separate entry of the source.

Assays:
[1] = tested on: e0771 orthotopic breast tumors in C57B1/6 mice; assay: Orthotopic e0771 breast tumor model with 20 Gy whole-thorax irradiation
Experimental: C57B1/6 female mice (Taconic) were injected with 100,000 cells of murine breast cancer (e0771) in the right second mammary fat pad on day 0 of the experiment. […] Each group (n=3) also received a single whole-thorax x-ray irradiation dose of 20 Gy with shielding of other organs. One group (n=3) received no treatment and no radiation. The long axis and short axis of the tumors were measured using calipers and recorded twice a week. On day 18 all mice were euthanized at a humane endpoint, which was defined by 20% weight loss and/or a tumor volume of 2000 mm^3 (˜10% of body weight). Organs and tumors were harvested from the mice and 600 μL of blood was collected via cardiac puncture for serum cytokine analysis. Once tumors were extracted, they were weighed and measured to determine final volume and weight. Pulse oximeter readings were taken initially before radiation treatment and before sacrifice 9 days post-radiation (MouseSTAT Jr. Pulse Oximeter, Kent Scientific). When mice were under anesthesia the sensor of the MouseSTAT Jr. was placed on the hind right paw for 30 seconds. The highest and lowest values shown by the pulse oximeter during this time were recorded and then averaged together. The mean of all the averages per treatment group was then calculated.

DR5-/- mice = assay: Radiation pneumonitis after whole-thorax x-ray irradiation, H&E of lung, DR5-null mice; format: in vivo, mouse; conditions: 20 Gy
Experimental: However, before embarking on the planned experiment, we decided to perform a preliminary, short-term treatment feasibility experiment to ensure some mouse survival after 20 Gy of thoracic irradiation (FIG. 1B). The preliminary experiment was performed with WT and DR5-null mice that were irradiated with 20 Gy, and this was followed by either weekly doses of TIC10/ONC201 (100 mg/kg for total of two doses) or twice a week doses of TLY012 (10 mg/kg for total of four doses) for 2 weeks.
Animal studies were carried out at Brown University facilities with approval from Brown University IACUC. C57B1/6 mice (Taconic), mice with bi-allelic loss of TRAIL Death Receptor-(DR5-/-) in a C57B1/6 background, and mice with bi-allelic loss of TRAIL (TRAIL -/-) in a C57B1/6 background were given a single whole-thorax x-ray (Philips RT250) irradiation dose of 20 Gy with shielding of other organs. 8-15-week-old male and female mice of each genotype were used. […] Treatment was continued for two weeks, where TLY012 was administered twice a week and ONC201 was administered once a week. For each genetic background, two mice received a control PO, two mice received TLY012 IP, and two mice received ONC201 PO. Mice were weighed twice a week, and 13 days post-irradiation all mice were euthanized. Organs were harvested from the mice and 600 μL of blood was collected via cardiac puncture for serum cytokine analysis. […]

TRAIL-/- female mice = assay: In vivo respiration-gated microCT imaging of lungs; design: species or system mouse; conditions: 15 Gy
Experimental: For μCT imaging, all mice were imaged in a SkyScan 1276 in vivo microCT scanner (Bruker, Kontich, Belgium) under isoflurane at 41 μm voxels with a 0.7° rotation step in supine position. […] Mice underwent μCT scans 13 days post irradiation. Image-based respiratory gating was used to sort images into gates based on specific time points of the breathing cycle to minimize motion artifact in the final reconstruction. For 3D reconstruction, Dataviewer version 1.5.4 (Bruker) was used to sort the CT images using the function “Listmode Scan” grouping the images in each bin where bin 0=maximum exhale and bin 3=maximum inhale (empty views <10%). Once the images were sorted, the listmode dataset was opened in NRecon software (Bruker) where the ROI undergoes 3D reconstruction. Reconstructed images were then analyzed in CTAn software (Bruker) where the volume of the lungs was calculated during max inhale and max exhale. The plugins in the custom processing page were used to create an ROI that separated the lungs from the rest of the image. 3D reconstructed images of the lung only were then opened in CTvol software (Bruker) where the color (red=69%, green=50%, blue=50%) and the opacity (7%) of the lung was changed.

[2] = tested on: mRNA from mouse lung tissue; assay: NanoString nCounter PanCancer Immune Profiling panel, mRNA from mouse lung tissue; format: in vivo
Experimental: One hour before radiation mice were grouped into control or given 10 mg/kg of TLY012 via IP injection (n=3/gender/treatment). Mice were treated and weighed twice a week up until 11 days post-radiation when all mice were euthanized.
Rodent sacrifice was performed following anesthetization with 100 mg/kg ketamine and 10 mg/kg xylazine administered intraperitoneally. ˜400-600 μL blood was first collected throughcardiac puncture with a 26G ⅝″ needle through the intercostal space into the left ventricle. […] 1 mL of 2 mg/mL EDTA in PBS was injected through the right ventricle to perfuse the lungs, after which the lungs were excised, washed further in PBS, submerged in RNAlater (Sigma-Aldrich, #R0901, Missouri, USA), and flash frozen in liquid nitrogen.
Frozen lung tissue was stored long-term at −80° C. Thawing was performed over 16 hours at 4° C. Tissue homogenization was performed with Precellys Lysing Kit (Cayman Chemical Company, #16859, Michigan, USA) and a Bulley Blender Homogenizer (Next Advance, #G14-G15) prior to RNA extraction with QlAgen RNeasy kit (Qiagen, #74104, Hilden, Germany) and cleaned up with QIAgen RNeasy MinElute Cleanup kit (Qiagen, #74204, Hilden, Germany). Quality and concentration were verified by Nanodrop. Extracted RNA samples were gene expression profiled by NanoString nCounter PanCancer Immune Profiling Panel (NanoString Technologies, #XTCSO-MIP1-12, Seattle, WA) according to the manufacturer's instructions.
Nanostring data was analyzed in nSolver Advanced Analysis Software and ROSALIND. Raw data was uploaded to nSolver for automated normalization, background subtraction, and quality control (QC) check. All samples passed QC. Control mice and mice treated with TLY012 lung samples were used to construct two groups to which an unpaired t-test was run to generate the data in the volcano plot that was created in ROSALIND (FIG. 5). Differential expression was determined with p-values and Benjamini-Yekutieli adjusted p-values. Pathway scores are generated in nSolver as a summarization of expression level changes of biologically related groups of genes. Pathway scores are derived from the first Principal Components Analysis (PCA) scores (1st eigenvectors) for each sample based on the individual gene expression levels for all the measured genes within a specific pathway. The cell type score itself is calculated as the mean of the log2 expression levels for all the probes included in the final calculation for that specific cell type.

duodenum, liver or heart = assay: H&E of duodenum, liver and heart of irradiated, treated mice; conditions: 20 Gy irradiated mice, 2 weeks treatment
Experimental: Animal studies were carried out at Brown University facilities with approval from Brown University IACUC. C57B1/6 mice (Taconic), mice with bi-allelic loss of TRAIL Death Receptor-(DR5-/-) in a C57B1/6 background, and mice with bi-allelic loss of TRAIL (TRAIL -/-) in a C57B1/6 background were given a single whole-thorax x-ray (Philips RT250) irradiation dose of 20 Gy with shielding of other organs. 8-15-week-old male and female mice of each genotype were used. […] Treatment was continued for two weeks, where TLY012 was administered twice a week and ONC201 was administered once a week. For each genetic background, two mice received a control PO, two mice received TLY012 IP, and two mice received ONC201 PO. Mice were weighed twice a week, and 13 days post-irradiation all mice were euthanized. Organs were harvested from the mice and 600 μL of blood was collected via cardiac puncture for serum cytokine analysis. Organs were preserved in 10% formalin then embedded in paraffin and sectioned at a distance of 5 μm. […] TRAIL-/- female mice were also subjected to a survival study with a single whole-thorax radiation doses of 15 Gy or 18 Gy treated with the same regimen of TLY012 or control (n=2/radiation dose/treatment) (FIG. 3B). […]

[3] = all mice, treated versus control
[4] = lung, 20 Gy, relative to control

In the case of “TLY012: N-terminal PEGylated recombinant human TRAIL; PEGylated trimeric TRAIL formulation”, the “effect on anti-tumor efficacy of radiation (tumor weight and volume)” value ([1]; 20 Gy on day 9, treatment days 9, 12, 16, sacrifice day 18, FIG. 6B, C) is reported as “no evidence that ONC201, TLY012 or their combination reduced efficacy of treatment”, the “alveolar-wall thickness (H&E)” value ([1]; 9 days post irradiation) is reported as “reduction” and the “lung inflammation (H&E)” value ([1]; 9 days post irradiation) is reported as “decreased inflammation”. For the same substance, the “oxygen saturation (pulse oximetry)” value ([1]; 9 days post-radiation, versus irradiated mice without further treatment, FIG. 6D) was “more conserved; also recorded: partially rescued”, the CCL22/MDC levels ([1]; irradiated tumor-bearing mice, versus irradiated control, FIG. 6E) was “significant decrease; also recorded: reduction; also recorded: Reduced” and the “rescue from radiation induced pneumonitis” value ([1]; tumor-bearing mice, 20 Gy) was “more potent by TLY012 than with ONC201”. The “rescue from radiation pneumonitis” value (DR5-/- mice; DR5-/- mice, FIG. 2A, B) was “did not observe rescue”, the protection from pneumonitis (DR5-/- mice; DR5-null mice, preliminary experiment, 2 weeks treatment, FIG. 1C) was “lack of protection” and the “3D reconstruction of lungs: clarity and visible airway space” value (TRAIL-/- female mice; same opacity conditions, FIG. 7B) was “overall clearer and have more visible airway space”. The “lung expansion upon inhalation (μCT)” value (TRAIL-/- female mice; twice weekly treatment, two weeks post irradiation, versus 15 Gy control, FIG. 7A) was “expand more upon inhalation”, the “genes with statistically significant differential expression” value ([2]; TRAIL-/- mice, 20 Gy, treated versus control) was 16 and the ““Antigen Processing” pathway score” value [2, 3] was “significant increases”. The ““Interferon” pathway score” value [2, 3] was “significant increases”, the ““Antigen Processing” pathway score” value ([2]; female cohort) was “significant increases” and the ““Basic Cell Functions” pathway score” value ([2]; female cohort) was “decrease”. For the same substance, the ““Dendritic Cell Functions” pathway score” value ([2]; female cohort) was “significant increases”, the ““MHC” pathway score” value ([2]; female cohort) was “significant increases” and the “BCL6 mRNA” value [2, 4] was “downregulated”. The “CCL6 mRNA” value [2, 4] was “upregulated”, the “DOCKS mRNA” value [2, 4] was “downregulated” and the “FOXJ1 mRNA” value [2, 4] was “downregulated”. The “H2-Q2 mRNA” value [2, 4] was “downregulated”, the “HERC6 mRNA” value [2, 4] was “upregulated” and the “IKZF2 mRNA” value [2, 4] was “downregulated”. For the same substance, the “IL1RL2 mRNA” value [2, 4] was “upregulated”, the “KLRA7 mRNA” value [2, 4] was “upregulated” and the “MAPK8 mRNA” value [2, 4] was “downregulated”. The “PTGS2 mRNA” value [2, 4] was “downregulated”, the “RAET1A mRNA” value [2, 4] was “downregulated” and the “RELB mRNA” value [2, 4] was “upregulated”. For the same substance, the “RRAD mRNA” value [2, 4] was “downregulated”, the “TMEM173 mRNA” value [2, 4] was “upregulated” and the “TNFSF10 mRNA” value [2, 4] was “upregulated”. The “toxicities in duodenum, liver or heart” value (duodenum, liver or heart) was “No obvious toxicities”.
